According to article PMC11550998, “Novel 5-HT7 receptor antagonists modulate intestinal immune responses and reduce severity of colitis” (American Journal of Physiology - Gastrointestinal and Liver …, 2024):

What was measured:
[1] = Microsomal stability assay, mouse liver microsomes; assay type: in vitro ADME; conditions: 37°C, NADPH regenerating system, read-out: T1/2 MLM
Method: Test compounds were assessed for microsomal stability by incubating at 37°C in the presence of mouse or human liver microsomes and an NADPH regenerating system as described by Yang et al. ([16]). Microsomal protein content was adjusted to ensure accurate rates of substrate consumption. Analysis was performed by LC-MS/MS analysis.

[2] = system: chronic DSS-induced colitis; experiment: Chronic DSS-induced colitis model (three cycles of DSS); assay type: in vivo, C57BL/6 mice; conditions: 10 mg/kg ip during last cycle
Text: C57BL/6 (Taconic, Cambridge City, IN) for the DSS model of colitis, as well as C57BL/6 and Rag1^−/− mice (Jackson Laboratory, Bar Harbor, ME) for the T-cell transfer model, were kept in sterilized, filter-topped cages under specific pathogen-free conditions upon arrival and fed autoclaved food. Male mice aged 8–10 wk were used for all experiments. Mice were acclimatized for 7 days before the start of any experiments. All experiments were approved by the animal ethics committee of McMaster University and conducted under Canadian guidelines for animal research.
For induction of acute colitis, DSS (molecular mass 40 kDa; ICN; Biomedicals Incorporate, Solon, OH) was added to autoclaved drinking water at a final concentration of 4 or 5% wt/vol for 5 days. For the induction of chronic colitis, DSS was added to normal drinking water at a final concentration of 4% for 5 days, followed by 7 days of water. This cycle was repeated twice thereafter, with 2% DSS. Control mice received vehicle or normal drinking water.
For acute DSS-induced colitis, C576BL/6 mice were treated with MC-170073 (10 mg/kg of body wt) or vehicle (10% DMSO in normal saline) via intraperitoneal injection once daily for 6 days, starting 1 day before the beginning of DSS. In a separate experiment, C57BL/6 mice were orally administered with MC-230078 (10 mg/kg) or vehicle twice daily for 5 days, starting from the beginning of DSS. […]
Disease activity index (DAI) is a combined score of weight loss, stool consistency, and fecal bleeding and was blindly assessed using a previously published scoring system ([19]). […] DAI was measured across all days of DSS treatment. Macroscopic damage scores were blindly scored using a previously published scoring system for DSS-induced colitis ([19]).
Colonic myeloperoxidase (MPO) levels were measured following a published protocol ([19]). […] The absorbance was measured at 450 nm by a spectrophotometer (model EL808, BioTek). MPO level was expressed in units per milligram of tissue, where 1 U is defined as the quantity of enzyme able to convert 1 μmol hydrogen peroxide to water per minute at room temperature.
Segments of the proximal colon were washed with PBS, fixed in 10% neutral-buffered formalin, washed with ethanol, and embedded in paraffin. Hematoxylin-eosin (H&E)-stained colonic tissue sections were scored using a previously published system ([19]): crypt architecture (normal = 0; severe crypt distortion with loss of entire crypts = 3), degree of inflammatory cell infiltration (normal = 0; dense inflammatory infiltrate = 3), muscle thickening (base of crypt sits on the muscularis mucosae = 0; marked muscle thickening present = 3), goblet cell depletion (absent = 0; present = 1), and crypt abscess (absent = 0; present = 1). […]

half-life [1]: 17 min
Compound: CCC1(CC)CC(CCN2CCN(c3ccc(O)cc3)CC2)OC1=O (centres unmarked) [MC-170073]
colonic IL-1β level [2]: lower levels
colonic MPO level [2]: lower levels
histological score [2]: downregulation
macroscopic score [2]: downregulation
